Experimental data taken from ChEMBL document CHEMBL1201862, “PubChem BioAssay data set” (2004).
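Values below derive from 48-hour exposures of cells grown in 96-well plates, with endpoints linearly interpolated between the two concentrations bracketing the appropriate inhibition level. GI50 is the concentration that inhibits growth by half.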 Activity calls are given as the source filed them. Cut-off read from the data, not from the text of the source: active = GI50 up to about 1.1 µM and inactive = higher.

Columns and labels:
Assay in all cases: DTP human tumour cell line panel, 48 h
KM12 = tested on: KM12
HOP-62 = tested on: HOP-62
UACC-257 = tested on: UACC-257
CCRF-CEM = tested on: CCRF-CEM
RXF 393 = tested on: RXF 393
SK-MEL-5 = tested on: SK-MEL-5
SF-295 = tested on: SF-295
NCI-H23 = tested on: NCI-H23
SN12C = tested on: SN12C
HCT-116 = tested on: HCT-116
SNB-75 = tested on: SNB-75
A549 = tested on: A549
HOP-92 = tested on: HOP-92
A498 = tested on: A498

Measured: GI50

O=C(NCc1ccc2ccc3cccnc3c2n1)c1ccc[n+](Cc2ccccc2)c1
inactive: KM12 91.4 µM | HOP-62 > 100 µM | UACC-257 > 100 µM | CCRF-CEM > 100 µM | RXF 393 > 100 µM | SK-MEL-5 74 µM | SF-295 > 100 µM | NCI-H23 > 100 µM | SN12C > 100 µM | HCT-116 > 100 µM | SNB-75 > 100 µM | A549 > 100 µM | HOP-92 37.7 µM

NC(=O)c1ccccc1NC(=O)C(=O)Cc1nc2ccccc2nc1O
inactive: KM12 71.8 µM | HOP-62 > 100 µM | UACC-257 > 100 µM | A498 > 100 µM | CCRF-CEM > 100 µM | RXF 393 > 100 µM | SK-MEL-5 > 100 µM | SF-295 > 100 µM | NCI-H23 > 100 µM | HCT-116 > 100 µM | SNB-75 60.8 µM | A549 > 100 µM | HOP-92 98.6 µM

COc1ccccc1OCc1nnc(SCC(=O)O)n1-c1ccccc1
inactive: KM12 > 100 µM | HOP-62 > 100 µM | UACC-257 > 100 µM | A498 > 100 µM | CCRF-CEM > 100 µM | SK-MEL-5 > 100 µM | SF-295 > 100 µM | NCI-H23 > 100 µM | SN12C > 100 µM | HCT-116 > 100 µM | SNB-75 > 100 µM | A549 > 100 µM | HOP-92 > 100 µM

COc1cccc(C2=NC(C(C)C)CO2)c1OC (stereo not given)
inactive: KM12 > 100 µM | HOP-62 > 100 µM | UACC-257 > 100 µM | A498 > 100 µM | CCRF-CEM > 100 µM | RXF 393 > 100 µM | SK-MEL-5 > 100 µM | SF-295 > 100 µM | NCI-H23 > 100 µM | SN12C > 100 µM | SNB-75 > 100 µM | A549 > 100 µM | HOP-92 > 100 µM

COC(=O)C(=O)C(C(=O)C(=O)Nc1cccc(C(C)=O)c1)c1nc2ccc([N+](=O)[O-])cc2nc1O (stereo not given)
inactive: KM12 > 100 µM | HOP-62 > 100 µM | UACC-257 > 100 µM | A498 > 100 µM | CCRF-CEM > 100 µM | RXF 393 > 100 µM | SK-MEL-5 > 100 µM | SF-295 > 100 µM | NCI-H23 > 100 µM | SN12C > 100 µM | HCT-116 > 100 µM | A549 > 100 µM | HOP-92 > 100 µM

COC(=O)[C@H]1C2CC[C@@H]3C45C[C@@H](c6ccoc6)O[C@@H]4O[C@@H](O2)C31CCC5C (stereo not given in full)
inactive: KM12 > 100 µM | HOP-62 > 100 µM | UACC-257 > 100 µM | A498 > 100 µM | CCRF-CEM 56.4 µM | SK-MEL-5 > 100 µM | SF-295 97.5 µM | NCI-H23 > 100 µM | SN12C > 100 µM | HCT-116 > 100 µM | A549 > 100 µM | HOP-92 44.6 µM

C=CCCCCCCCC(O)C1C[C@H](O)C(CCCCC)O1 (stereo not given in full)
inactive: KM12 19.5 µM | UACC-257 > 10 µM | A498 19.8 µM | CCRF-CEM 19.3 µM | RXF 393 17.1 µM | SK-MEL-5 18.3 µM | SF-295 17.6 µM | NCI-H23 16.9 µM | SN12C 19.5 µM | HCT-116 17.6 µM | SNB-75 15.2 µM | A549 19.4 µM | HOP-92 15.7 µM

CN/N=C(/CC(=O)c1sc(NNC(C)=O)nc1C)C(=O)Nc1ccc(OC)cc1OC
inactive: KM12 > 100 µM | HOP-62 > 100 µM | UACC-257 > 100 µM | A498 > 100 µM | CCRF-CEM > 100 µM | SK-MEL-5 > 100 µM | SF-295 > 100 µM | NCI-H23 > 100 µM | SN12C > 100 µM | HCT-116 > 100 µM | A549 > 100 µM | HOP-92 > 100 µM

Cc1ccc(C(O)/C(=N/N)c2nc3ccc([N+](=O)[O-])cc3nc2O)cc1 (stereo not given)
inactive: KM12 51.8 µM | HOP-62 > 100 µM | UACC-257 > 100 µM | CCRF-CEM 13.5 µM | RXF 393 > 100 µM | SK-MEL-5 43.2 µM | SF-295 > 100 µM | NCI-H23 > 100 µM | SN12C > 100 µM | HCT-116 > 100 µM | SNB-75 43.7 µM | A549 > 100 µM | HOP-92 > 100 µM

CC(C)C(NCc1c2ccccc2[n+]([O-])c2ccccc12)C(=O)O (stereo not given)
inactive: KM12 52.6 µM | HOP-62 > 100 µM | UACC-257 > 100 µM | A498 > 100 µM | CCRF-CEM 35.3 µM | SK-MEL-5 46.5 µM | SF-295 > 100 µM | NCI-H23 44.1 µM | SN12C 44.8 µM | HCT-116 25.3 µM | SNB-75 20.9 µM | A549 > 100 µM | HOP-92 1.8 µM

CN(/N=C/c1ccnc2ccccc12)c1c([N+](=O)[O-])cc([N+](=O)[O-])cc1[N+](=O)[O-]
inactive: KM12 > 100 µM | HOP-62 88.3 µM | UACC-257 > 100 µM | A498 48.8 µM | CCRF-CEM 18.3 µM | RXF 393 39.2 µM | SK-MEL-5 34.2 µM | SF-295 76.9 µM | NCI-H23 35.1 µM | SN12C > 100 µM | SNB-75 > 100 µM | A549 94.8 µM | HOP-92 28.1 µM

C[C@]12CCc3nonc3C1CC[C@@H]1C2CC[C@@]2(C)C1CC[C@@H]2O (stereo not given in full)
inactive: KM12 > 100 µM | HOP-62 > 100 µM | UACC-257 > 100 µM | A498 > 100 µM | CCRF-CEM > 100 µM | RXF 393 > 100 µM | SK-MEL-5 > 100 µM | SF-295 > 100 µM | NCI-H23 > 100 µM | SN12C > 100 µM | SNB-75 86.7 µM | A549 > 100 µM | HOP-92 94.4 µM

FC(F)(F)c1nc(Br)[nH]c1C(F)(F)F
inactive: KM12 > 100 µM | HOP-62 32 µM | UACC-257 > 100 µM | CCRF-CEM 66.5 µM | RXF 393 73.5 µM | SK-MEL-5 76.7 µM | SF-295 > 100 µM | NCI-H23 86.7 µM | SN12C 69 µM | HCT-116 45.7 µM | SNB-75 > 100 µM | A549 > 100 µM | HOP-92 27.8 µM

COC(=O)/C=C(C)/C=C/c1cc(C(C)=O)c(C)o1
inactive: KM12 > 100 µM | HOP-62 > 100 µM | UACC-257 > 100 µM | CCRF-CEM > 100 µM | SF-295 > 100 µM | NCI-H23 > 100 µM | HCT-116 > 100 µM | SNB-75 68.4 µM | A549 66.7 µM | HOP-92 23.2 µM

COC(=O)C(C(=O)C(=O)Nc1cccc([N+](=O)[O-])c1)c1nc2ccc([N+](=O)[O-])cc2nc1O (stereo not given)
inactive: KM12 > 100 µM | HOP-62 > 100 µM | UACC-257 > 100 µM | A498 > 100 µM | CCRF-CEM > 100 µM | RXF 393 > 100 µM | SK-MEL-5 > 100 µM | SF-295 > 100 µM | NCI-H23 > 100 µM | SN12C > 100 µM | HCT-116 > 100 µM | SNB-75 70.6 µM | A549 > 100 µM
